# Patent US20230348473A1, “SUBSTITUTED PYRIDINES AS PARP1 INHIBITORS” (Xinthera, Inc., priority 2022, published 2023)
# Experiments:
# [1] = HLM metabolic stability, predicted human hepatic clearance; assay type: in vitro ADME; settings: well-stirred model, 1 μM
# Method: Working stocks of individual test articles were prepared at a concentration of 100 μM by diluting 10 mM stocks prepared in DMSO 100-fold (v:v) into ACN. Thawed hepatic microsomes were suspended in 100 mM potassium phosphate buffer, pH 7.4 to a microsomal protein concentration of 0.562 mg/mL. Diluted microsomes were combined with a solution of 10 mM NADPH, and the mixture was pre-warmed to 37° C. for 8 min. Reactions were initiated by addition of the test article working stocks to achieve a final test article concentration of 1 μM. Final microsomal protein and NADPH concentrations were 0.5 mg/mL and 1 mM, respectively. Incubations containing NADPH were run in duplicate. Test article losses mediated by non-CYP mechanisms were evaluated in a parallel set of incubations run in the absence of NADPH. Incubations lacking NADPH consisted of 1 replicate per test article. Following incubation in a 37° C. water bath, aliquots of individual reactions were quenched with cold ACN containing internal standards at […], 15-, 30-, 60-, 90-, and 120-min. Precipitated protein was pelleted via refrigerated centrifugation. Supernatants were diluted into an equal volume of pure water and mixed well prior to analysis via LC-MS/MS. In vitro intrinsic clearances (CLint) in μL/min/mg were determined for each incubation from calculated in vitro half-lives determined using a standard log-linear regression approach. In vitro CLint values were scaled up using the following physiological scaling factors: 40 mg microsomal protein/g human liver and 25.7 g human liver/kg body weight.
# [2] = Caco-2 bidirectional permeability; assay type: in vitro ADME; settings: human; for Papp A→B at 2 h, 5 μM: apical-to-basolateral, read-out: Caco-2 AB; for Papp B→A at 2 h, 5 μM: basolateral-to-apical, read-out: Caco-2 BA; for efflux ratio at 2 h, 5 μM: efflux ratio Papp (B-to-A)/Papp (A-to-B)
# Method: Following a 1-hr. equilibration period in cell culture medium maintained at 37° C. in an incubator containing a 5% CO2 atmosphere at 95% relative humidity, Corning 96-well HTS Transwell® permeable support plates were seeded with 34,300 Caco-2 cells (ATCC) per well. Following seeding, plates were cultured for 14-18 days with cell culture medium replacement every other day beginning no later than 24 hr. after plating. Monolayer barrier integrity was monitored during the culture period using transepithelial electrical resistance (TEER) measurements taken with a Millicell Epithelial Volt-Ohm system. Caco-2 monolayers were considered ready for use when the TEER value >230 ohm·cm^2. Working stocks of individual test articles were prepared at a concentration of 5 μM by diluting 1 mM stocks prepared in DMSO into 10 mM HEPES. Prior to conducting the assay, Caco-2 plates were washed twice with prewarmed 10 mM HEPES and then equilibrated in 10 mM HEPES for 30 min. at 37° C. Following equilibration, test article flux was tested bidirectionally (in both the apical-to-basolateral and basolateral-to-apical directions) by adding test article working stocks to either the apical or basolateral chambers. Blank 10 mM HEPES was added to the opposite sides. Plates were then incubated at 37° C. for 2 hours. At the end of the incubation, aliquots from both sides of each monolayer were quenched with 4 volumes of ACN containing internal standards. Following a centrifugation step, supernatants were diluted with pure water prior to analysis via LC-MS/MS.
# Apparent permeability (Papp, ×10^−6 cm/s) was calculated for all transport assays using the following equation: […]
# Where: Papp is apparent permeability (×10^−6 cm/s). • dQ/dt is the rate of drug transport (pmol/s). • A is the surface area of the membrane (cm^2). • D0 is the initial donor concentration (nM; pmol/cm^3).
# Efflux ratio was determined by calculating the ratio of the Papp in the basolateral-to-apical direction to the Papp in the apical-to-basolateral direction using the following equation: […]
# Where: Papp (B-to-A) is the apparent permeability in the basolateral-to-apical direction. • Papp (A-to-B) is the apparent permeability in the apical-to-basolateral direction.
# [3] = hHEP metabolic stability, predicted human hepatic clearance; assay type: in vitro ADME; settings: well-stirred model, 1 μM
# Method: Working stocks of individual test articles were prepared at concentrations of 100 μM by diluting 10 mM stocks prepared in DMSO 100-fold (v:v) into ACN/H2O (50/50, v:v). Human cryopreserved hepatocytes were thawed in a 37° C. water bath in <2 min., suspended in thawing media, and then centrifuged at 100×g for 10 min. Thawing media was aspirated, and pelleted hepatocytes were resuspended into incubation media at 1.5×10^6 cells/mL. Cell viability was determined using an Acridine Orange/Propidium Iodine stain, and hepatocytes were further diluted with incubation media to 0.5×10^6 viable cells/mL. Hepatocyte aliquots of 198 μL were added to wells of a 96-well plate, and test article incubations were initiated by the addition of 2 μL of 100 μM working stocks. Plates were incubated at 37° C. in a 5% CO2 atmosphere at 95% relative humidity on an orbital shaker at 300 rpm. Incubations were performed in duplicate. Following incubation, aliquots of individual reactions were terminated by addition of ACN containing internal standards at 0, 30-, 60-, 90-, 120-, and 240-min. Precipitated protein was pelleted via refrigerated centrifugation. Supernatants were diluted into an equal volume of pure water and mixed well prior to analysis via LC-MS/MS. In vitro intrinsic clearances (CLint) in μL/min/10^6 cells were determined for each incubation from calculated in vitro half-lives determined using a standard log-linear regression approach. In vitro CLint values were scaled up using the following physiological scaling factors: 99×10^6 cells/g human liver and 25.7 g human liver/kg body weight.
# [4] = In vivo determination of rat Kp,uu; settings: male Sprague-Dawley rats, oral gavage, Kp*(fraction unbound in brain homogenate/fraction unbound in plasma)
# Method: The equilibrium dialysis method was used to investigate the in vitro binding of test articles and reference compounds to plasma proteins. Plasma samples containing 5 μM test article or blank dialysis buffer solution (PBS, pH 7.4) were added to separate chambers of the dialysis wells of the High Throughput equilibrium Dialysis (HTD) device. The dialysis plate was sealed and placed in an incubator at 37° C. with 5% CO2 with shaking at approximately 100 rpm for 6 hours. All experiments were performed in duplicable. Ketoconazole (5 μM) was used as the reference compound. After incubation, the seal was removed, and 50 μL of post-dialysis samples were pipetted from both buffer and plasma chambers into fresh 96-well plates. Samples were equimatrilyzed by either addition of blank plasma to buffer samples or the addition of blank buffer to plasma samples. Subsequently, 400 μL (4 volumes) of acetonitrile containing internal were added to all samples to precipitate proteins prior to analysis by UPLC-MS/MS to determine the relative concentrations of test articles. The unbound fractions in plasma were calculated using the concentrations of test articles in buffer and plasma samples according to the following equation: […]
# The equilibrium dialysis method was used to investigate the in vitro binding of test articles and reference compounds to rodent brain homogenate. Brains collected from naïve animals were weighed and homogenized in 4 volumes of PBS, pH 7.4. […] The unbound fractions in diluted brain homogenate were calculated using the concentrations of test articles in buffer and homogenate samples according to the following equation: […]
# Prior to bioanalysis, plasma and brain samples were extracted with 4 volumes of acetonitrile containing internal standard and centrifuged for 15 minutes. […] Plasma and brain homogenate drug concentrations were determined against calibration curves generated by spiking blank rat plasma or brain homogenate with drug across an appropriate concentration range. […]
# PARP2 = PARP2 (Homo sapiens (Human), UniProt Q9UGN5); assay: Biochemical fluorescence polarization (FP) assay, PARPi-FL displacement, PARP2; assay type: binding; settings: 20 nM protein, 3 nM PARPi-FL, 4 h
# Method: (§1) To characterize our compounds, we utilized an assay measuring the displacement of a commercially available fluorescently labeled PARP 1/2 inhibitor (PARPi-FL, Tocris Biosciences, #6461) as exemplified in assays performed in WO2014/064149 and WO2021/013735A1. The assay was performed utilizing the following method: Compounds were dissolved in DMSO an Echo550 liquid handler was utilized to make serial dilations in the desired concentration range in Optiplate-384F plates. 100% DMSO was used for the high (with protein) and low (without protein) control samples. 20 nL of compound or DMSO alone was added to individual assay plate wells. […] The PARPi-FL was then added at a final concentration of 3 nM. The assay plate is centrifuged at 1000 rpm for 1 min and incubated for 4 h at room temperature. […] XLFit (equation 201) is used to calculate a reported IC50 for each compound.
# PARP1 = PARP1 (Homo sapiens (Human), UniProt P09874); assay: Biochemical fluorescence polarization (FP) assay, PARPi-FL displacement, PARP1; assay type: binding; settings: 20 nM protein, 3 nM PARPi-FL, 4 h
# Method: as §1
# Chain of PARP2 (Q9UGN5 whole entry): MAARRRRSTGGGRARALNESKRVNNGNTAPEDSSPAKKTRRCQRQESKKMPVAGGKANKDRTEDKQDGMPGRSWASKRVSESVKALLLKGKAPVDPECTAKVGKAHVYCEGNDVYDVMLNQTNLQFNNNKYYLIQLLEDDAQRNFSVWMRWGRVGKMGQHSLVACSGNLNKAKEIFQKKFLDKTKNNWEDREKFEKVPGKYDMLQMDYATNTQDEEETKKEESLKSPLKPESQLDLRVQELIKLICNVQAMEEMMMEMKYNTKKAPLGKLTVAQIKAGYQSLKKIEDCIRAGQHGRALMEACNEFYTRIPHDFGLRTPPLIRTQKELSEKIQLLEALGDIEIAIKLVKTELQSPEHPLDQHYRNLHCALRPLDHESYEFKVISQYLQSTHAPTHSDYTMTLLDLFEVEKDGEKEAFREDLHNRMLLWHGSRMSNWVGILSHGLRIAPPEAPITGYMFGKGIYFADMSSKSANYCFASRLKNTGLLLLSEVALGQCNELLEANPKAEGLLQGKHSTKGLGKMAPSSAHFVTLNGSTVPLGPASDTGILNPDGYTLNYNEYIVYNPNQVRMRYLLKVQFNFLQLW
# Chain of PARP1 (P09874 whole entry): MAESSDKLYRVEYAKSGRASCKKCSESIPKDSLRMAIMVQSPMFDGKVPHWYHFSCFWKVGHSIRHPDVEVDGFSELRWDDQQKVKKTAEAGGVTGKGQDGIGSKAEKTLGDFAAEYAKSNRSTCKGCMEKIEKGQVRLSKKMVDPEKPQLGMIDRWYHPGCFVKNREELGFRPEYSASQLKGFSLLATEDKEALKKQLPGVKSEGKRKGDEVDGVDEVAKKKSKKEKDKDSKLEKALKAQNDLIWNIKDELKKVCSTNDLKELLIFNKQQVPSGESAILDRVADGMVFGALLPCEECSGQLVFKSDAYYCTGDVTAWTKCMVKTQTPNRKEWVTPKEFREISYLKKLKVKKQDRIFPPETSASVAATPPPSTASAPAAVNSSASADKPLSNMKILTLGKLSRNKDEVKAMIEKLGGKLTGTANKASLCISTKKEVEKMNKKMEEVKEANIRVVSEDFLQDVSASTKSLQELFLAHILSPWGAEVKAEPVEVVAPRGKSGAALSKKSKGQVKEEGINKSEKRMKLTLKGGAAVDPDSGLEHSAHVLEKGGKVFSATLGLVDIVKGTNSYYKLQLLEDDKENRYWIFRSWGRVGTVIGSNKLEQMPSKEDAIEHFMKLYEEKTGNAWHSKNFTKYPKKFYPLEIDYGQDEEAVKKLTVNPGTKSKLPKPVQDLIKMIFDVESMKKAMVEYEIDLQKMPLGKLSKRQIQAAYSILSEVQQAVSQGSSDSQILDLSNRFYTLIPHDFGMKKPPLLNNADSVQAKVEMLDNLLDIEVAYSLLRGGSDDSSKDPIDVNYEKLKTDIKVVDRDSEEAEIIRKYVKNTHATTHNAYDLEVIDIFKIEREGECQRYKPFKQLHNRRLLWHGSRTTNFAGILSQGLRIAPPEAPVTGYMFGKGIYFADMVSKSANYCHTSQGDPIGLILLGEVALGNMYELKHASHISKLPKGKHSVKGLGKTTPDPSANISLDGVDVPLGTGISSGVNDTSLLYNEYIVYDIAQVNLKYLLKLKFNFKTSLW
HLM Clh [1],"Papp A→B at 2 h, 5 μM [2]","Papp B→A at 2 h, 5 μM [2]",HHEP Clh [3],"efflux ratio at 2 h, 5 μM [2]",Rat Kpuu [4],IC50 (PARP2),IC50 (PARP1),Structure (SMILES)
<4 mL/min/kg,20.5 ×10⁻⁶ cm/s,28.1 ×10⁻⁶ cm/s,<3.3 mL/min/kg,,0.65,,,"CNC(=O)c1ccc(N2CCN(Cc3ccc4c5c(c(=O)[nH]c4c3F)CCO5)CC2)c(F)n1 [Example 9, 6-fluoro-5-[4-({6-fluoro-4-oxo-2H,3H,5H-furo[3,2-c]quinolin-7-yl}methyl)piperazin-1-yl]-N-methylpyridine-2-carboxamide]"
,,,,,1.0,> 100000 nM,8.1 nM,"CNC(=O)c1ccc(N2CCN(Cc3ccc4c([nH]c(=O)c5ccnn54)c3F)CC2)c(F)n1 [Example 1, 6-fluoro-5-[4-({6-fluoro-4-oxo-5H-pyrazolo[1,5-a]quinoxalin-7-yl}methyl)piperazin-1-yl]-N-methylpyridine-2-carboxamide]"
11.5 mL/min/kg,11.5 ×10⁻⁶ cm/s,14.5 ×10⁻⁶ cm/s,14.5 mL/min/kg,,,,,CNC(=O)c1ccc(N2CCN(Cc3ccc4c5c(c(=O)[nH]c4c3F)CCC5)CC2)c(F)n1 [Comp. Ex. 4]
,,,,,0.81,,,[2H]C([2H])(c1ccc2c3c(c(=O)[nH]c2c1F)CCO3)N1CCN(c2ccc(C(=O)NC)nc2F)CC1 [Example 24]

# The next lines start with the compound.
Structure (SMILES),HLM Clh [1],"Papp A→B at 2 h, 5 μM [2]","Papp B→A at 2 h, 5 μM [2]",HHEP Clh [3],"efflux ratio at 2 h, 5 μM [2]",Rat Kpuu [4],IC50 (PARP2),IC50 (PARP1)
"CNC(=O)c1ccc(N2CCN(Cc3ccc4c5c(c(=O)[nH]c4c3)CCO5)CC2)c(C)n1 [Comp. Ex. 1, N,6-dimethyl-5-[4-({4-oxo-2H,3H,5H-furo[3,2-c]quinolin-7-yl}methyl)piperazin-1-yl]pyridine-2-carboxamide]",<4 mL/min/kg,2.5 ×10⁻⁶ cm/s,26.2 ×10⁻⁶ cm/s,<3.3 mL/min/kg,,,,
"CNC(=O)c1ccc(N2CCN(Cc3ccc4c5c(c(=O)[nH]c4c3)CCO5)CC2)c(Cl)n1 [Comp. Ex. 2, 6-chloro-N-methyl-5-[4-({4-oxo-2H,3H,5H-furo[3,2-c]quinolin-7-yl}methyl)piperazin-1-yl]pyridine-2-carboxamide]",4.2 mL/min/kg,2.4 ×10⁻⁶ cm/s,21.9 ×10⁻⁶ cm/s,6.6 mL/min/kg,9.3,,,
"CNC(=O)c1ccc(N2CCN(Cc3cc(F)c4c5c(c(=O)[nH]c4c3)COC5)CC2)c(F)n1 [Comp. Ex. 3, 6-fluoro-5-(4-((9-fluoro-4-oxo-1,3,4,5-tetrahydrofuro[3,4-c]quinolin-7-yl)methyl)piperazin-1-yl)-N-methylpicolinamide]",7.2 mL/min/kg,0.8 ×10⁻⁶ cm/s,5.5 ×10⁻⁶ cm/s,7.1 mL/min/kg,7.3,,,
